The species entered for experiment [1] is Bos taurus. The experiment is described as follows: Inhibitory potency of compound against ceramide synthase activity in bovine liver microsomes(Ms) at concentration of 400 uM. The following applies: Microsome.
Experiment [2] in a line: Inhibitory potency of compound against neutral (N-) SMase activity in Bacillus cereus at concentration of 400 uM.
Experiment [3] is described as follows: Inhibitory potency of compound against neutral (N-) SMase activity in bovine brain microsomes(Ms) at concentration of 400 uM. The following applies: Microsome.
Experiment [4] in a line: Inhibitory potency of compound against neutral (N-) SMase activity in bovine liver microsomes(Ms) at concentration of 400 uM. The following applies: Microsome. A general note: Liver microsomes are vesicles of endoplasmic reticulum, rich in cytochrome P450 enzymes.
Experiment [5] deals with Sphingomyelin phosphodiesterase 1 (acid sphingomyelinase) (Bos taurus). The experiment is described as follows: Inhibitory potency of compound against acidic (A-) SMase activity in bovine brain lysosomes microsomes(Ms) at concentration of 400 uM. The following applies: Microsome.
Experiment [6] is filed under the species Homo sapiens. The experiment is described as follows: Inhibitory concentration against […] induced IL1-beta production in human peripheral monocytes. In kind it is functional.

Usually inhibition stands for the relative decrease from the control value, in per cent. Take `CCCCCCCCCCCCCCCCCC(=O)N[C@H](C(O)c1ccccc1)C(O)C(F)(F)P(=O)(O)O` (stereo partly specified): the inhibition was 0% in experiment [1]; 0% in experiment [2]; 50% in experiment [3]; 15% in experiment [4]; 80% in experiment [5].

What is called IC50 is the concentration at which inhibition is half-maximal. Read a high IC50 as weaker potency. In experiment [6], `CC[C@@H](C)/C=C(\C)C[C@@H](C)C[C@@H](C)/C=C/C=C/C=C/C(=O)N[C@H](CO)C[C@@]1(O)C(=O)C=C[C@@H]2O[C@@H]21` [SCYPHOSTATIN] gave an IC50 of 100 nM.

The values are drawn from ChEMBL document CHEMBL1134756, “Synthesis and evaluation of a difluoromethylene analogue of sphingomyelin as an inhibitor of sphingomyelinase” (Bioorg Med Chem Lett, 2001).
